From US11078228B2, “Ectonucleotidase inhibitors and methods of use thereof” (Calithera Biosciences, Inc., priority 2018, dated 2021) come the findings set out here.

recombinant CD73, sequence (P21589 27-547): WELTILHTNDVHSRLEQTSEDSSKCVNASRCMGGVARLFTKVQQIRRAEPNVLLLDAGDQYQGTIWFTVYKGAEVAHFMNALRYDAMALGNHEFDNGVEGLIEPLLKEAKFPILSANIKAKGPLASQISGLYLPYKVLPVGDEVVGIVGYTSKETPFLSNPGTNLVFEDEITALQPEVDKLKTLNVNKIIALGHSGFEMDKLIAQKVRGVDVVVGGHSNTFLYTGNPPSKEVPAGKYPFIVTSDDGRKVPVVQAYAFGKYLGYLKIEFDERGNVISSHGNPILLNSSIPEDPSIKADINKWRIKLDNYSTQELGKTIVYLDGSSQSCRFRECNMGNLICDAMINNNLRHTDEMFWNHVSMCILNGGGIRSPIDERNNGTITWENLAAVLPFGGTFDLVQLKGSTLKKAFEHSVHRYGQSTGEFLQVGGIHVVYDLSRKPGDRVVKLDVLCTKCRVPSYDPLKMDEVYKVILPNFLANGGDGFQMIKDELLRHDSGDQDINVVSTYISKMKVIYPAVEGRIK

For this experiment, the target named is recombinant CD73 (Homo sapiens (Human), UniProt P21589). Kind of experiment: Assay 1: Inhibition of the CD73 enzyme in vitro (0.5 nM CD73, 30 min room temperature, Malachite Green). In kind it is biochemical. The following applies: 0.5 nM CD73, 30 minutes at room temperature. As to the method:
For measurements of soluble CD73 enzyme activity, recombinant CD73 was obtained from R&D Systems, Cat. No. 5795-EN-010. […] Reactions were allowed to proceed for 30 minutes at room temperature before the addition of 100 μL Malachite Green (Cell Signaling Technology, Cat. No. 12776). After 5 minutes at room temperature, absorbance at 630 nm was determined on a microplate spectrophotometer. The concentration of inorganic phosphate was determined using a phosphate standard curve.
The term IC50 denotes the concentration needed to halve the response being measured. As for `C#C[C@@]1(O)[C@@H](COC(C(=O)O)C(=O)N2CCCC2)O[C@@H](n2cnc3c(N)nc(Cl)nc32)[C@@H]1O` (stereo partly drawn) [Example 113, 2-(((2R,3S,4R,5R)-5-(6-amino-2-chloro-9H-purin-9-yl)-3-ethynyl-3,4-dihydroxytetrahydrofuran-2-yl)methoxy)-3-oxo-3-(pyrrolidin-1-yl)propanoic acid], the IC50 turned out to be 331 nM.
With `C#C[C@@]1(O)[C@@H](COC(Cc2cccc(C(=O)O)c2)(C(=O)O)c2cscn2)O[C@@H](n2cnc3c(N)nc(Cl)nc32)[C@@H]1O` (stereo partly drawn) [Example 182, 3-(2-(((2R,3S,4R,5R)-5-(6-amino-2-chloro-9H-purin-9-yl)-3-ethynyl-3,4-dihydroxytetrahydrofuran-2-yl)methoxy)-2-carboxy-2-(thiazol-4-yl)ethyl)benzoic acid] the figure was 24 nM.
With `C#C[C@@]1(O)[C@@H](COC(Cc2ccccc2)(C(=O)O)C(=O)O)O[C@@H](n2cnc3c(NCC4CC4)nc(Cl)nc32)[C@@H]1O` [Example 92, 2-benzyl-2-(((2R,3S,4R,5R)-5-(2-chloro-6-((cyclopropylmethyl)amino)-9H-purin-9-yl)-3-ethynyl-3,4-dihydroxytetrahydrofuran-2-yl)methoxy)malonic acid] the figure was 0.8 nM; with `C#C[C@@]1(O)[C@@H](CO[C@@H](C(=O)O)c2csc(-c3ccccc3)n2)O[C@@H](n2cnc3c(N)nc(Cl)nc32)[C@@H]1O` (single isomer, unassigned) [Example 194], 336 nM; with `C#C[C@@]1(O)[C@@H](COC(C(=O)O)c2csc(C(=O)O)n2)O[C@@H](n2cnc3c(N)nc(Cl)nc32)[C@@H]1O` (stereo partly drawn) [Example 195, 4-((((2R,3S,4R,5R)-5-(6-amino-2-chloro-9H-purin-9-yl)-3-ethynyl-3,4-dihydroxytetrahydrofuran-2-yl)methoxy)(carboxy)methyl)thiazole-2-carboxylic acid], 236 nM.
`C#C[C@@]1(O)[C@@H](CO[C@@](Cc2ccccc2)(C(=O)O)c2nnn[nH]2)O[C@@H](n2cnc3c(N)nc(Cl)nc32)[C@@H]1O` [Example 192, (R)-2-(((2R,3S,4R,5R)-5-(6-amino-2-chloro-9H-purin-9-yl)-3-ethynyl-3,4-dihydroxytetrahydrofuran-2-yl)methoxy)-3-phenyl-2-(1H-tetrazol-5-yl)propanoic acid]: the IC50 came out at 25 nM.
With `Nc1nc(Cl)nc2c1ncn2[C@@H]1O[C@H](COC(C(=O)O)C(=O)O)[C@](O)(C#Cc2ccn(Cc3ccccc3)n2)[C@H]1O` [Example 28, 2-(((2R,3S,4R,5R)-5-(6-amino-2-chloro-9H-purin-9-yl)-3-((1-benzyl-1H-pyrazol-3-yl)ethynyl)-3,4-dihydroxytetrahydrofuran-2-yl)methoxy)malonic acid] the figure was 3 nM; with `C#C[C@@]1(O)[C@@H](COC(Cc2ccccc2)(C(=O)O)C(=O)O)O[C@@H](n2cnc3c(NCc4ccccc4)nc(Cl)nc32)[C@@H]1O` [Example 59, 2-benzyl-2-(((2R,3S,4R,5R)-5-(6-(benzylamino)-2-chloro-9H-purin-9-yl)-3-ethynyl-3,4-dihydroxytetrahydrofuran-2-yl)methoxy)malonic acid], 1 nM.
With `C#C[C@@]1(O)[C@@H](CO[C@@](Cc2ccccc2)(C(=O)O)c2cscn2)O[C@@H](n2cnc3c(NC)nc(Cl)nc32)[C@@H]1O` [Example 188, (R)-2-(((2R,3S,4R,5R)-5-(2-chloro-6-(methylamino)-9H-purin-9-yl)-3-ethynyl-3,4-dihydroxytetrahydrofuran-2-yl)methoxy)-3-phenyl-2-(thiazol-4-yl)propanoic acid], the IC50 stood at 134 nM.
As to `Nc1nc(Cl)nc2c1ncn2[C@@H]1O[C@H](COC(C(=O)O)C(=O)O)[C@](O)(C#Cc2cc[nH]n2)[C@H]1O` [Example 27, 2-(((2R,3S,4R,5R)-3-((1H-pyrazol-3-yl)ethynyl)-5-(6-amino-2-chloro-9H-purin-9-yl)-3,4-dihydroxytetrahydrofuran-2-yl)methoxy)malonic acid], the IC50 is 18 nM.
